In the assay the test system is L-arginine deiminase (ADI). As to the kind of experiment: Lineweaver-Burk plot; ammonia release with Nessler's reagent. Type of assay: biochemical, Penicillium chrysogenum. As to conditions: free enzyme; pH and temperature of the kinetic assay not given.

A word on the Km: it is the concentration of substrate that gives half-maximal velocity. Consider `N=C(N)NCCC[C@H](N)C(=O)O` [L-arginine], for which the Michaelis constant (Km) amounted to 760 µM.

For the origin of these results see article PMC11549461, “Stability of immobilized L-arginine deiminase from Penicillium chrysogenum and evaluation of its anticancer activity” (Scientific Reports, 2024).
